Assay results reported in PubChem BioAssay AID1208 (EPA DSSTox, 2008).
Activity calls are given as the source filed them.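 The calls were made as follows: active = at least one rat sex group has a carcinogenic potency value and tumor site recorded; inconclusive = only rat studies were judged inadequate by the national testing program; inactive = no potency or tumor site, with negative rat experiments.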

Tested on: rat chronic carcinogenicity bioassay, TD50
Test: DSSTox (CPDBAS) Carcinogenic Potency Database Summary Rat Bioassay Results
Conditions: for Potency: stronger effect = lower value; for outcome: TD50_Rat_Note: no positive results
From the text: The Carcinogenic Potency Database (CPDB) is a unique and widely used international resource of the results of over 6500 chronic, long-term animal cancer tests on over 1500 chemical substances. The CPDB provides easy access to the bioassay literature, with qualitative and quantitative analyses of both positive and negative experiments that have been published over the past 50 years in the general literature and by the National Cancer Institute/National Toxicology Program. The CPDB standardizes the diverse literature of cancer bioassays that vary widely in protocol, histopathological examination and nomenclature, and in the published author's choices of what information to provide in their papers. Results are reported in the CPDB for tests in rats, mice, hamsters, dogs, and nonhuman primates, and are based on the most positive result among all experiments for each sex-species. The DSSTox CPDBAS (all species) file incorporates data from the CPDB Summary Tables for the full list of over 1500 chemical substances tested in at least one species. Summary bioassay results for Rat (TD50, tumor sites, male, female, both sexes) are provided in the CPDB Summary Tables and the DSSTox CPDBAS file for over 1200 chemical substances.
TD50 is a standardized quantitative measure of carcinogenic potency (analogous to an LD50) and is reported in the CPDB Summary Table for each species. Activity Score for actives is computed by mapping of LOG10 (1/TD50_Rat_mmol) activity values spanning range [MIN, MAX] onto Integer 1-100 Activity Score range, where 100 is highest potency and 1 is lowest: Activity Score = 100 * INTEGER[(log10(1/Activity) - MIN)/(MAX - MIN)]. If activity is reported but no TD50_Rat_mmol value is computed, such as for a mixture, the Activity Score is assigned the activity value "50". […] Target sites are reported for each sex-species group with a positive result in the CPDB on the basis of a positive author's opinion for the particular site, using all results from both the general literature and NCI/NTP bioassays. If a chemical has two or more target sites listed, the results may be from different experiments, and a single site may be a target organ in more than one experiment, as well. Blank entry in TargetSites field indicates no results reported.

[1] = TargetSites_Rat_Female: no positive results
[2] = TD50_Rat_Note: TD50 value is overestimated as upper 99% confidence limit from study with 100% tumor incidence but no lifetable, harmoni
[3] = TargetSites_Rat_BothSexes: no positive results
[4] = TD50_Rat_Note: TD50 is harmonic mean of more than one positive test, TargetSites_Rat_Female: stomach
[5] = TD50_Rat_Note: TD50 is harmonic mean of more than one positive test, TargetSites_Rat_Female: liver

For `CC(C)CN(N=O)C(N)=O`, the Potency (TargetSites_Rat_Female: small intestine) was 4.73 mg/kg/day.
`CCO` was tested, and the Potency [1] was 9110 mg/kg/day.
With `Clc1ccc(C(c2ccc(Cl)cc2)C(Cl)Cl)cc1` the outcome [1] was “inactive; no positive results”.
`NNc1nc(-c2ccc(N)cc2)cs1` gave a Potency (TargetSites_Rat_Female: hematopoietic system, mammary gland) of 1.03 mg/kg/day.
For `CCCCCCCCS(=O)C(C)Cc1ccc2c(c1)OCO2` (centres undefined), the outcome [1] was “inactive; no positive results”.
With `O=[N+]([O-])c1cc([As](=O)(O)O)ccc1O` the outcome [1] was “inactive; no positive results”.
In the case of `CC(O)CCl` (centres undefined), the outcome [1] is reported as “inactive; no positive results”.
With `C[C@H]1CCCCN1N=O` the Potency (TargetSites_Rat_BothSexes: nervous system) was 13.2 mg/kg/day.
With `ClCCCl` the Potency (TD50_Rat_Note: TD50 is harmonic mean of more than one positive test, greater than ten-fold variation among TD50 values for positive res, TargetSites_Rat_Female: mammary gland, subcutaneous tissue) was 14.6 mg/kg/day.
With `C=C1C(CCl)(CCl)C2(Cl)C(Cl)C(Cl)C1(Cl)C2(Cl)Cl` (centres undefined) the outcome [1] was “inactive; no positive results”.
`O=P1(NCCCl)OCCCN1CCCl` (centres undefined) was tested, and the Potency (TD50_Rat_Note: positive test results only by intraperitoneal or intravenous injection, TargetSites_Rat_Female: uterus) was 0.739 mg/kg/day.
With `NC(=O)N(CCF)N=O` the Potency was 0.125 mg/kg/day.
With `CCOC1=C(O)C(=O)O[C@@H]1[C@@H](O)CO` the outcome [1] was “inactive”.
With `COc1cc(O)c2c(=O)c3c(OC)cc4c(c3oc2c1OC)C1C=COC1O4` (centres undefined) the Potency [2] was 0.364 mg/kg/day.
`S=C=NCCc1ccccc1` was tested, and the outcome was “inactive; no positive results”.
`C=CBr` showed a Potency (TD50_Rat_Note: TD50 is harmonic mean of more than one positive test, TargetSites_Rat_Female: ear Zymbals gland, liver, vascular system) of 18.5 mg/kg/day.
For `CC(=O)Nc1ccc(N=Nc2cc(C)ccc2O)cc1`, the Potency [1] was 380 mg/kg/day.
For `CN(C)c1ccc(N=Nc2ccccc2)cc1`, the Potency (TargetSites_Rat_Female: liver) was 3.31 mg/kg/day.
In the case of `Clc1cc2c(cc1Cl)Oc1cc(Cl)c(Cl)cc1O2`, the Potency (TD50_Rat_Note: TD50 is harmonic mean of more than one positive test, greater than ten-fold variation among TD50 values for positive res, TargetSites_Rat_Female: liver, lung) is reported as 2.35e-05 mg/kg/day.
`CCBr` was tested, and the Potency (TD50_Rat_Note: no positive results are statistically significant, TargetSites_Rat_Female: no positive results) was 149 mg/kg/day.
`CC(C(O)c1ccccc1)N(C)N=O` (centres undefined) was tested, and the Potency was 95.2 mg/kg/day.
For `O=[As]O`, the outcome [3] was “inactive”.
In the case of `NC(=O)N(CC(=O)O)N=O`, the Potency (TD50_Rat_Note: TD50 is harmonic mean of more than one positive test, greater than ten-fold variation among TD50 values for positive res, TargetSites_Rat_Female: mammary gland, small intestine) is reported as 4.31 mg/kg/day.
`C=CCN(CC(C)=O)N=O` showed a Potency (TargetSites_Rat_Female: esophagus, liver) of 0.335 mg/kg/day.
`CCCCN(CCCCO)N=O` showed a Potency (TD50_Rat_Note: TD50 is harmonic mean of more than one positive test, harmonic mean of TD50 includes a value for upper 99% confidence li, TargetSites_Rat_Female: urinary bladder) of 0.457 mg/kg/day.
For `Nc1c(F)c(N)c(F)c(F)c1F`, the outcome was “inactive; no positive results”.
For `O=P(OCC(Br)CBr)(OCC(Br)CBr)OCC(Br)CBr` (centres undefined), the Potency (TD50_Rat_Note: TD50 is harmonic mean of more than one positive test, TargetSites_Rat_Female: kidney) was 3.83 mg/kg/day.
`N#[N+]c1cc(CCN)ccc1[O-]` gave a Potency of 37.6 mg/kg/day.
In the case of `CCCCCCCCCCCC[N+](C)(C)[O-]`, the outcome [1] is reported as “inactive; no positive results”.
With `O=C1NC(=O)C(c2ccccc2)(c2ccccc2)N1` the outcome [1] was “inactive; no positive results”.
With `O=Nc1ccc(NO)cc1` the Potency (TargetSites_Rat_Female: urinary bladder) was 106 mg/kg/day.
Work on `CN(CCO)N=O` yielded a Potency of 1.29 mg/kg/day.
In the case of `NCCCC(N)(C(=O)O)C(F)F` (centres undefined), the outcome [1] is reported as “inactive; no positive results”.
`CNc1ccc(N(CCO)CCO)cc1[N+](=O)[O-]` showed a Potency (TargetSites_Rat_Female: lung) of 702 mg/kg/day.
For `Cc1cn([C@H]2C[C@H](N=[N+]=[N-])[C@@H](CO)O2)c(=O)[nH]c1=O`, the Potency (TargetSites_Rat_Female: vagina) was 11600 mg/kg/day.
In the case of `CCNNC(=O)[C@@H]1[C@H](c2cc(OC)c(OC)c(OC)c2)c2cc3c(cc2[C@H](O)[C@H]1CO)OCO3`, the outcome is reported as “inactive; no positive results”.
With `ClC1C2(Cl)C3C4C5OC5C5C4C1(Cl)C(Cl)(C53)C2(Cl)Cl` (centres undefined) the outcome [1] was “inactive; no positive results”.
`CN(CCCC(=O)O)N=O` was tested, and the Potency was 0.982 mg/kg/day.
For `CN(C)c1ccc(N=NS(=O)(=O)O)cc1`, the outcome [1] was “inactive; no positive results”.
In the case of `CCC(CC)C(=O)NC(N)=O`, the outcome is reported as “inactive; no positive results”.
`O[C@H]([C@H](O)[C@@H](O)CBr)[C@H](O)CBr` was tested, and the Potency (TD50_Rat_Note: positive test results only by intraperitoneal or intravenous injection) was 8.37 mg/kg/day.
For `C=CC(=O)OCC`, the Potency [4] was 119 mg/kg/day.
`O=C1CCC(=O)O1` was tested, and the outcome [1] was “inactive; no positive results”.
For `CCN(CC)c1ccc(N=Nc2cc[n+]([O-])cc2)cc1`, the Potency [2] was 1.63 mg/kg/day.
For `S=C(SN1CCOCC1)N1CCOCC1`, the Potency (TD50_Rat_Note: TD50 is harmonic mean of more than one positive test, TargetSites_Rat_Female: kidney, urinary bladder) was 90.8 mg/kg/day.
In the case of `O=[As](O)(O)O`, the outcome [3] is reported as “inactive”.
For `Cc1ncc([N+](=O)[O-])n1C`, the Potency (TargetSites_Rat_Female: mammary gland) was 17 mg/kg/day.
In the case of `CC1=C(C(=O)OCCN(Cc2ccccc2)c2ccccc2)C(c2cccc([N+](=O)[O-])c2)C(P2(=O)OCC(C)(C)CO2)=C(C)N1` (centres undefined), the outcome [1] is reported as “inactive; no positive results”.
With `CCCCC(C)(O)C/C=C/[C@H]1[C@H](O)CC(=O)[C@@H]1CCCCCCC(=O)OC` (some centres undefined) the outcome [1] was “inactive; no positive results”.
For `CC(C)NCC(O)COc1ccc(CC(N)=O)cc1` (centres undefined), the outcome [1] was “inactive; no positive results”.
`CC1CCC(C(C)C)C(O)C1` (centres undefined) was tested, and the outcome [1] was “inactive; no positive results”.
With `O=S(=O)(O)CCS` the outcome was “inactive; no positive results”.
Work on `CC(O)CN(N=O)C(=O)NCCCl` (centres undefined) yielded a Potency [5] of 0.873 mg/kg/day.
For `CN=C(NC#N)NCCSCc1nc[nH]c1C`, the outcome [1] was “inactive; no positive results”.
`Cn1cc(OCC(O)CNC(C)(C)C)c2ccccc2c1=O` (centres undefined) was tested, and the outcome [1] was “inactive; no positive results”.
In the case of `NNc1nc(-c2ccc([N+](=O)[O-])o2)cs1`, the Potency (TD50_Rat_Note: TD50 is harmonic mean of more than one positive test, TargetSites_Rat_Female: kidney, mammary gland) is reported as 3.19 mg/kg/day.
`[Cl-].[Cl-].[Hg+2]` was tested, and the Potency [1] was 3.12 mg/kg/day.
With `OCCOCCOCCO` the outcome was “inactive; no positive results”.
`CN[C@H]1CC[C@@H](c2ccc(Cl)c(Cl)c2)c2ccccc21` was tested, and the outcome [1] was “inactive”.
For `COc1cc2c(c3oc4cccc(O)c4c(=O)c13)C1C=COC1O2` (centres undefined), the Potency (TD50_Rat_Note: TD50 is harmonic mean of more than one positive test, greater than ten-fold variation among TD50 values for positive res, TargetSites_Rat_BothSexes: liver) was 0.152 mg/kg/day.
`CS(=O)(=O)OCCCCOS(C)(=O)=O` was tested, and the outcome was “inactive; no positive results”.
For `c1ccc2c(c1)Oc1ccccc1O2`, the outcome [1] was “inactive; no positive results”.
In the case of `CC[C@H](C)[C@H]1O[C@]2(CC[C@@H]1C)C[C@@H]1C[C@@H](C/C=C(\C)[C@@H](O[C@H]3C[C@H](OC)[C@@H](O[C@H]4C[C@H](OC)[C@@H](O)[C@H](C)O4)[C@H](C)O3)[C@@H](C)/C=C/C=C3\CO[C@@H]4[C@H](O)C(C)=C[C@@H](C(=O)O1)[C@]34O)O2`, the outcome is reported as “inactive; no positive results”.
For `NC1=NC(=O)C(c2ccccc2)O1` (centres undefined), the outcome [1] was “inactive”.
Work on `O=NN1CCCCC1c1cccnc1` (centres undefined) yielded a Potency (TD50_Rat_Note: TD50 is harmonic mean of more than one positive test, TargetSites_Rat_Female: esophagus) of 11.9 mg/kg/day.
With `CCC1(c2ccccc2)C(=O)NC(=O)NC1=O` the outcome [1] was “inactive; no positive results”.
In the case of `Cc1ccc2c(-c3cccc(O)c3)nc(=O)n(C(C)C)c2c1`, the outcome [1] is reported as “inactive; no positive results”.
Work on `Cc1ccc(O)c(O)c1` yielded a Potency (TD50_Rat_Note: TD50 is harmonic mean of more than one positive test, harmonic mean of TD50 includes a value for upper 99% confidence li, TargetSites_Rat_Female: stomach) of 248 mg/kg/day.
`O=NN1CCC(O)C1` (centres undefined) showed a Potency (TargetSites_Rat_BothSexes: all tumor bearing animals) of 7.65 mg/kg/day.
Work on `Nc1nnc(-c2ccc([N+](=O)[O-])o2)s1` yielded a Potency (TargetSites_Rat_Female: kidney, lung, mammary gland, stomach) of 0.662 mg/kg/day.
`OC(Cn1cncn1)(Cn1cncn1)c1ccc(F)cc1F` gave a Potency [1] of 80.7 mg/kg/day.
Molecule `CCCCOCCOCCOCc1cc2c(cc1CCC)OCO2` has a Potency [5] of 633 mg/kg/day.
`ClC(Cl)Br` gave a Potency (TD50_Rat_Note: TD50 is harmonic mean of more than one positive test, greater than ten-fold variation among TD50 values for positive res, TargetSites_Rat_Female: kidney, large intestine, liver) of 72.5 mg/kg/day.
With `O=C(c1ccccc1)C(O)c1ccccc1` (centres undefined) the outcome [1] was “inactive; no positive results”.
`Cc1c(N(C)CS(=O)(=O)O)c(=O)n(-c2ccccc2)n1C` was tested, and the outcome [1] was “inactive; no positive results”.
With `CCCCCCCN` the outcome was “inactive; no positive results”.
`COc1ccc([N+](=O)[O-])cc1N=Nc1c(O)c(C(=O)Nc2cccc([N+](=O)[O-])c2)cc2ccccc12` was tested, and the outcome [1] was “inactive; no positive results”.
Molecule `O=C(O)/C=C/c1ccc(O)c(O)c1` has a Potency [4] of 297 mg/kg/day.
`COc1ccc(C(c2ccc(OC)cc2)C(Cl)(Cl)Cl)cc1` was tested, and the outcome [1] was “inactive; no positive results”.
